Assay results as given in EP0259183A2, “Process for controlling the accuracy and precision of sensitivity assays” (LIFETRAC, priority 1986, dated 1988).

System: primary human tumor cells
Assay: Drug sensitivity assay of primary tumor cell cultures on cell-adhesive matrix, growth quantitated by optical density of crystal violet stained wells, IC90 from survival curves
Format: cell-based
Conditions: median of IC90 values over a large group of individuals' tumor cells (Figure 5); 5 days drug exposure, then 7 days further culture; 2,000 cells per well
Method: Biopsies of tumors were obtained from cancer patients during routine diagnostic or therapeutic procedures. The biopsies were transported to the laboratory.
The solid tumor biopsies were minced with scapels to 1 mm pieces. Fluid specimens were anticoagulated with 10 Units/ml of Heparin and the cells recovered by contrifugation. The tissue from either the solid or fluid specimens were disaggregated by overnight incubation with constant stirring with the enzyme cocktail consisting of collagenase (0.075%) and DNase (0.005%) in culture medium supplemented with 10% fetal bovine serum. […]
The tumor cell count is performed using a hemocytometer and a microscope fitted with a phase gradient inaging system so that living cells can be visualized. The number of viable tumor cells are counted at 400X magnification according to the following criteria: 1. unstained by the trypan blue dye; 2. large size (>15 microns); 3. large nucleous to cytoplasmic ratio; 4. prominant nucleoli; and 5. nil to moderate granularity. The number of cells in 1/9th the marked area of the hemocytometer meeting the above criteria are counted.
The cell concentration is calculated and an aliquot containing the number of cells required for the assay (200,000 cells for a 9 drug assay using alphaMEM culture medium) is withdrawn. […]

For `N.N.[Cl][Pt][Cl]` [cisplatin], the “IC90 (concentration of drug that killed or inhibited 90% of the growing population of cells), median of the distribution of responses” value was 0.3 µg/mL.
